Several values for one entry are separate records, joined by “and”; a condition that tells them apart may be missing. Equal entries are not always repeated. Where two headings read alike, the source gives them in different places.
Tests used:
C57Bl/6 mice given Con A [1] = format: in vivo
C57Bl/6 mice given Con A [2] = assay: Colchicine by gavage once six hours before ConA injection, serum ALT; format: in vivo; conditions: for ALT Average: N = 3
Experimental: Lack of an effect of low dose colchicine (0.5 mg, 3 times a day) as anti-inflammatory agent, while showing beneficial effect of low dose colchicine in diabetes and fatty liver disease. • Mice: C57Bl/6 mice, 11-12 weeks old • Duration: Mice will be administered once Colchicine six hours before ConA • Sacrifice: 14 hours after ConA injection.
Experiment Protocol: • Day 1: Administer all compounds by gavage 300 ul: saline or Colchicine • After 6 hours give Con A by injection IV 500 μg/mouse=20 mg/kg=[…] • Day 2: On the next day: sacrifice all mice • Take blood for serum ALT The results of this experiments are given in the table below and in FIG. 7.

mice on a High fat diet = assay: Low dose colchicine in high fat diet model of type 2 diabetes and fatty liver; format: in vivo; conditions: colchicine for two weeks, dose that had no anti-inflammatory effect
Experimental: • Give colchicine at the end of the experiment for two weeks to 4 mice who were on a High fat diet and developed diabetes and fatty liver disease. • Mice are treated with a dose that had no anti-inflammatory effect. • Test for glucose, ALT and cholesterol levels at the end of the two weeks.

[3] = in vivo; cited from earlier work
[4] = system: PBMC from naïve GD patients; assay: PBMC from Gaucher patients incubated with ConA, IFNg ELISA; conditions: for IFNg ELISA, second value (Conc) / IFNg Conc: Colchicine 0.0625 pg/ml or dexamethasone 250 ug/well
[5] = system: C57 Bl mice receiving CONA; assay: Daily low dose CONA in mice, regular vs irregular dexamethasone administration, serum ALT; format: in vivo; conditions: dexamethasone 50 mg/kg per day
Experimental: Mice: 24 C57 Bl mice, 12 weeks old, n=4/group
All animals received daily low dose CONA 300 μg/mouse daily for 10 days
Dexamethasone daily 50 mg/kg per day
ALT serum levels were monitored as follows

[6] = Patient 1, lymphocytes only 80.9
[7] = Patient 2, lymphocytes only 474.7

SMILES: Nc1c(Br)cc(Br)cc1CN[C@H]1CC[C@H](O)CC1 [Ambroxol]
- ALT (IU) (C57Bl/6 mice given Con A [1]; Ambroxol 1.4 mg PO, alone or with Colchicine 0.01 mg/kg, control 6068): 4243 IU
- ALT Average (C57Bl/6 mice given Con A [1]; Ambroxol arm, N = 3, control 6068): 4243
- ALT (C57Bl/6 mice given Con A [1]; single mice, Ambroxol arm, dilution 1/40): 3683 and 4187 and 4859

SMILES: COc1cc2c(c(OC)c1OC)-c1ccc(OC)c(=O)cc1[C@@H](NC(C)=O)CC2 [Colchicine]
- ALT Average (C57Bl/6 mice given Con A [2]; Low dose, Colchicine 0.005 μg/kg by gavage): 3218
- ALT Average (C57Bl/6 mice given Con A [2]; Regular dose, Colchicine 0.05 μg/kg by gavage): 17134
- ALT (C57Bl/6 mice given Con A [2]; single mice, Regular dose, Colchicine 0.05 μg/kg by gavage, dilution 1/40): 18946 and 19427 and 13029
- adjuvant effect on the efficacy of drugs (C57Bl/6 mice given Con A [1]; low dose colchicine, summary in words): can serve as a potent adjuvant to improve the efficacy of drugs
- Glucose (mg %) (mice on a High fat diet; control 190): 155 mg %
- ALT (IU) (mice on a High fat diet; control 278): 103 IU
- Cholesterol (mg %) (mice on a High fat diet; control 342): 100 mg %
- part of dose excreted unchanged by the kidneys [3]: 10-20%
- removal by hemodialysis [3]: not removed by hemodialysis
- IFNg ELISA, second value (Conc) ([4]; P1, lymphocytes only 80.9): 52.3
- IFNg ELISA, second value (Conc) ([4]; P2, lymphocytes only 474.7): 47.57
- IFNg Conc [4, 6]: 52.3
- IFNg Conc [4, 7]: 47.57
- effect on the inflammatory effect of PBMC from patients with Gaucher disease ([4]; summary in words): profound effect on suppressing the inflammatory effect of PBMC

SMILES: C[C@@H]1C[C@H]2[C@@H]3CCC4=CC(=O)C=C[C@]4(C)[C@@]3(F)[C@@H](O)C[C@]2(C)[C@@]1(O)C(=O)CO [Dexamethasone]
- ALT serum level ([5]; Day 2, group B, regular 8AM every day): 644.25
- ALT serum level ([5]; Day 2, group C, irregular time of administration): 747
- ALT serum level ([5]; Day 5, group B, regular 8AM every day): 978.75
- ALT serum level ([5]; Day 5, group C, irregular time of administration): 842.5
- ALT serum level ([5]; Day 10, group B, regular 8AM every day): 1210.25
- ALT serum level ([5]; Day 10, group C, irregular time of administration): 876.75
- IFNg ELISA, second value (Conc) ([4]; P1, lymphocytes only 80.9): 33.29
- IFNg ELISA, second value (Conc) ([4]; P2, lymphocytes only 474.7): 23.29
- IFNg Conc [4, 6]: 33.29
- IFNg Conc [4, 7]: 23.29

Reference: patent US11728018B2, “Subject-specific system and method for prevention of body adaptation for chronic treatment of disease” (OBERON SCIENCES ILAN LTD., priority 2017, dated 2023)
